Source: patent US9512180B2, “Compstatin analogs” (THE REGENTS OF THE UNIVERSITY OF CALIFORNIA, priority 2012, dated 2016)

Assays:
[1] = RP-HPLC relative lipophilicity (retention factor k, log k); assay type: physicochemical
Experimental: The effect of the hydrophobic content of compstatin family peptides on relative lipophilicity was evaluated using RP-HPLC, a widely applied indirect technique for the determination of the lipophilicity of drugs and drug candidates. The determination of log P by RP-HPLC is based on the measurement of the retention factor k between the mobile and stationary phase (Eq. 7) of the investigated compound:
[formula] where tR is the retention time of the analyte, and to is the elution time of an unretained analyte. The logarithm of the retention factor is linearly correlated with the logarithm of the partition coefficient log P=a log k+b (8). where a and b are the slope and intercept of the linear equation.
The determination of log P values requires calibration using structurally related compounds, and is beyond the scope of this study. Instead the log k values were used to indicate the relative lipophilicities of this compstatin peptide family.
HPLC experiments were carried out using an Agilent 1100 HPLC with UV detection at 280 nm at 25° C. Separations were performed on a Waters (Milford, Mass.) 4.6×150 mm XTerra MS C18 column with 5 μm pore size using a mobile phase of A: 10 mM phosphate buffer pH=7.4 containing 1% TFA, and B: acetonitrile. The purity of the peptides was verified by an isocratic separation at 28% B and a flow rate of 1 mL/min. Solutions containing 0.6-0.8 mg/mL of Peptides I, III, VI, IX and the parent peptide were prepared in methanol and diluted 5-times with the eluent. All five peptides eluted as single peaks indicating a high degree of purity (FIG. 10).
For the determination of the relative lipophilicities a solution containing each of the peptides was prepared from the stock solutions and injected in triplicate. […] A 0.5 mg/mL solution of aspartic acid was used as the unretained analyte for the determination of the column dead time, 1.439±0.003 min.
RP-HPLC was used to measure the hydrophobicity/lipophilicity content of the compstatin family peptides. The retention of a compound in RP-HPLC depends on its hydrophobicity/lipophilicity content, and is correlated to the octanol-water partition ratio. Lipophilicity describes the partitioning of a compound between an aqueous and a lipidic/hydrophobic environment, and is an essential physicochemical parameter to determine pharmacokinetic behavior according to ADME (absorption, distribution, metabolism, excretion) characterization. Because the compstatin family peptides consist of a hydrophobic and a polar surface, their ability to bind to the hydrophobic cavity of C3, while maintaining a solvent-exposed face has been evaluated here as lipohilicity content, measured by RP-HPLC. In addition, lipohilicity is inversely proportional to aqueous solubility, and therefore can be used to estimate solubility of the peptides in their free (unbound) state.

[2] = Aqueous solubility by concentration measurement (absorbance at 280 nm) of saturated peptide solutions; assay type: physicochemical; details: saturated peptide solutions, absorbance at 280 nm; read-out: approximate aqueous solubility
Experimental: The relative lipophilicities of Peptides I, III, VI, IX, and Parent are inversely consistent with solubilities as determined via concentration measurement (absorbance at 280 nm) of saturated peptide solutions, with Peptides I, III, and Parent having approximate aqueous solubilities of >1 mM, Peptide VI>500 μM, and Peptide IX<500 μM.

rC3 = rC3 (Rattus norvegicus, UniProt P01026); experiment: Experimental activity against rC3 (method not described)
Chain of rC3 (P01026 25-1663): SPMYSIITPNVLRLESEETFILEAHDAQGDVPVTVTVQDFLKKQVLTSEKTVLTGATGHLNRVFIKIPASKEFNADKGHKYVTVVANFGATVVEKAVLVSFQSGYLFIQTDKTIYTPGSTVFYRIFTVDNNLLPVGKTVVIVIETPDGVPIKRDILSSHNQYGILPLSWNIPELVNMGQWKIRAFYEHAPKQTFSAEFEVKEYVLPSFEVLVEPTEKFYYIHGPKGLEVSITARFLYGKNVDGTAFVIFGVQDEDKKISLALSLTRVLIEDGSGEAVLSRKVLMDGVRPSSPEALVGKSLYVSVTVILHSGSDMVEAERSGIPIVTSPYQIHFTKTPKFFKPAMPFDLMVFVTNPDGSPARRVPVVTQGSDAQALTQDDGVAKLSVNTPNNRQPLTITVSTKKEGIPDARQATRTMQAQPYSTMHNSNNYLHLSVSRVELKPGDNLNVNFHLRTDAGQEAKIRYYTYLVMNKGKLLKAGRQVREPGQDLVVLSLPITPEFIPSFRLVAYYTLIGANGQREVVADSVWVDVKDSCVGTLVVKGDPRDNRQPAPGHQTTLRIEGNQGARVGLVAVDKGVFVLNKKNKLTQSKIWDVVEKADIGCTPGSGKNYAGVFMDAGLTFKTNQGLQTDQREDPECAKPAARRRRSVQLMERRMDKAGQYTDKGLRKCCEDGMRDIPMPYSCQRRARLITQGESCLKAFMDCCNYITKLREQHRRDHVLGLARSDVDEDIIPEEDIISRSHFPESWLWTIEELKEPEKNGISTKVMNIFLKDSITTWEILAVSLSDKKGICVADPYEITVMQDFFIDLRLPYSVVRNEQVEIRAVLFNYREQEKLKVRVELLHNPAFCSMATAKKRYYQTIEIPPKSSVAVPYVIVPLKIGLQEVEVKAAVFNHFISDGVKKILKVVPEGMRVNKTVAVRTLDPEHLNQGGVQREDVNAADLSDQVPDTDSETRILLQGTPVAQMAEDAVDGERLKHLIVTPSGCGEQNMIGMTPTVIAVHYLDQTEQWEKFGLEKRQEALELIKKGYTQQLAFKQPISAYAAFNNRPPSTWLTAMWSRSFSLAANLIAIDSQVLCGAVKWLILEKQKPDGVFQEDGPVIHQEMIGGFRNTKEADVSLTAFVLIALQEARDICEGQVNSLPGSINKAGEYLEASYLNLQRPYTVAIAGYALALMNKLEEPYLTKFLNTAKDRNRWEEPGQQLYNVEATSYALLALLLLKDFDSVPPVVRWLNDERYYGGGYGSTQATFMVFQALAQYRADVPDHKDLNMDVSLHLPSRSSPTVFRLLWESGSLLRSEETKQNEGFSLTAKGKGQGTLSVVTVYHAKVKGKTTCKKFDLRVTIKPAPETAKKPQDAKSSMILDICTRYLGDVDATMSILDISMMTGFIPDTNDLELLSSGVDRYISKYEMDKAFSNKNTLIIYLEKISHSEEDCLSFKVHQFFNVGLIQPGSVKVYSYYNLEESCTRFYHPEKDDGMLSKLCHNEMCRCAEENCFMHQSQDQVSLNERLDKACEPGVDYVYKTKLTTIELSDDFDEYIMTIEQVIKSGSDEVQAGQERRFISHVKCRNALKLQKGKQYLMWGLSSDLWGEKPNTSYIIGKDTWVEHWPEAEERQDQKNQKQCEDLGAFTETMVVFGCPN

SMILES: CC[C@H](C)[C@H](NC(C)=O)C(=O)N[C@H]1CSSC[C@@H](C(=O)N[C@H](C(N)=O)[C@@H](C)O)NC(=O)[C@H](CCCNC(=N)N)NC(=O)[C@H](Cc2c[nH]cn2)NC(=O)[C@H](C)NC(=O)CNC(=O)[C@H](Cc2c[nH]c3ccccc23)NC(=O)[C@H](CC(=O)O)NC(=O)[C@H](CCC(N)=O)NC(=O)[C@H](Cc2c[nH]c3ccccc23)NC(=O)[C@H](C(C)C)NC1=O [Peptide IX, Ac- ICV WQDWGA HRCT-NH2, reference compound]
- Retention factor (k) [1]: 11.429
- logk [1]: 1.058
- solubility [2]: < 500 µM
- activity against rC3 (in words) (rC3): inactive
